K(Dye2) = not defined here; K(tet) = not defined here; code O = not defined here; C17 = C17 chain

For data set [1] the following is noted: cited from earlier work.
For data set [2] the following is noted: cited from earlier work; for Monera et al. Hydrophobicity at pH 7: normalized, phenylalanine 100, glycine 0.
The target of data set [3] is T1, PKCβII (Homo sapiens, UniProt P05771).
T1 construct: purchased Upstate USA, Inc
Kind of data set: Inhibition of PKCβII in real-time micelle kinase assay. It counts as biochemical. The following applies: FIGS. 5A-B, IC50 only in figures.
Procedure: A reaction solution (10 μl) was prepared containing the hydrophobic molecule C16OOOK(Dye2)EEIYGEF-amide (10 μM), and 10 μM charge-balance molecule Myelin Basic Protein (Upstate USA, Inc. cat. no: 13-104), in 20 mM Tris buffer, pH 7.6, MgCl2 (5 mM), DTT (5 mM), 10% Lipid Activator (Upstate USA, Inc), and PKCβII (0.15 ng/μl, Upstate USA, Inc.). The solution was pipetted into wells of a 384-well plate (10 μL per well), Corning 384-well, black, non-binding surface (NBS), microwell plates. […] ATP (10 μM) was added to initiate the kinase reaction. Fluorescence was read in real-time every 2 minutes for 2 hours, at ambient temperature, using, Molecular Devices (Sunnyvale, Calif.) Analyst GT, with excitation and emission set at 485 and 535 nm respectively.

Data set [4] can be described thus: Freeze fracture electron microscopy of micelles. It counts as physicochemical. The following applies: 25 mM Tris pH 7.6; for micelle form seen in electron micrograph: FIGS. 1A-B. The source says: Micelle formation can be detected in a variety of ways, including fluorescence titration of the molecules in detergent, and dynamic laser light scattering. Additionally, direct visual evidence of micelle formation, and micelle disruption by adding a charged group, can be obtained by freeze fracturing electron microscopy. For example, FIG. 1A is an electron micrograph of micelles comprising the hydrophobic molecule, C17OOOK(tet)RQGSFRA-amide. […] “Tet” is a fluorescent moiety provided by 2′,7′,4,7-tetachloro-5-carboxy fluorescein (2′,7-dichloro-5-carboxy-4,7-dichlorofluorescein). OOO represents optional O-spacers comprising (bis)ethylene glycol group(s). […] FIG. 1B is an electron micrograph of micelles comprising a phosphorylated hydrophobic molecule, C17OOOK(tet)RQGS(p)FRA-amide. […] Thus, the addition of two negative charges to the hydrophobic molecule, results in micelle disruption and deaggregation.
For freeze fracture electron microscopy, the hydrophobic molecule, C17OOO K(tet)RQGSFRA-amide phosphorylated hydrophobic molecule C17OOOK (tet)RQGS(p)FRA-amide were each dissolved in 25 mM Tris (pH 7.6), 5 mM MgCl and 5 mM DTT. The samples were frozen in liquid nitrogen-cooled propane. […] The fracturing process was carried out in a JEOL JED-9000 freeze-etching machine and the exposed fractured planes were shadowed with Pt for thirty seconds at an angle of 25-35 C and with carbon for 35 seconds (2 kV/60-70 mA, 1×10^−5 Torr). The replicas produced were cleaned with concentrated chloroform/methanol (1:1 by volume) at least five times. The cleaned replicas were examined with a JEOL 1000CX or Philips CM 10 electron microscope.

The target in data set [5] is T2, MAP kinase2/Erk2 (Homo sapiens, UniProt P28482).
T2 construct: purchased Upstate USA, Inc
T2 sequence (P28482 whole entry): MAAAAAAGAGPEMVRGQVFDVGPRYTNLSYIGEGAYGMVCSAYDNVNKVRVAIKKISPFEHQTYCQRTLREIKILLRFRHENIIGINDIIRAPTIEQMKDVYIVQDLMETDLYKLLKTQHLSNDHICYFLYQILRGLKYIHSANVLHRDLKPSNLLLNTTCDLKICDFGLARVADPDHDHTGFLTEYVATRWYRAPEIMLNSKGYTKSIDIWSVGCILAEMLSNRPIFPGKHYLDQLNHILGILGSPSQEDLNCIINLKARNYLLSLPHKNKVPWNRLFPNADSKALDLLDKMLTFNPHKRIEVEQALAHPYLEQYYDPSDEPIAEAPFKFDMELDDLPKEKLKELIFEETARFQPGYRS
Kind of data set: Real-time kinase assay with hydrophobic molecule and myelin basic protein micelle. It counts as biochemical. The following applies: FIG. 3C. How it is done:
(§1) The compositions described herein are useful in the detection of enzymes. Real-time kinase assays for PKCβII, MAP kinase1/Erk1, and MAP kinase2/Erk2 using the hydrophobic molecule, C16OOOK(Dye 2)EEIYGEF-amide and charge-balance molecule, myelin basic protein with 0 or 100 μM ATP, are shown in FIGS. 3A-C.
(§2) A reaction solution (10 μl) was prepared containing the hydrophobic molecule C16OOOK(Dye2)EEIYGEF-amide (10 μM), and 10 μM charge-balance molecule Myelin Basic Protein (Upstate cat. no: 13-104), in 20 mM Tris buffer, pH 7.6, MgCl2 (5 mM), DTT (5 mM) and either PKCβII (0.15 ng/μl, Upstate USA, Inc.), MAP kinase1/Erk1 (1.5 ng/μl, Upstate USA, Inc.), or MAP kinase2/Erk2 (1.5 ng/μl, Upstate USA, Inc.). The solution was pipetted into wells of a 384-well plate (10 μL per well), Corning 384-well, black, non-binding surface (NBS), microwell plates. ATP (0 or 500 μM) was added to initiate the kinase reaction. Fluorescence was read in real-time every 2 minutes for 2 hours, at ambient temperature, using, Molecular Devices (Sunnyvale, Calif.) Analyst GT, with excitation and emission set at 485 and 535 nm respectively.

Data set [6] deals with T1, PKCβII. Described as above. The following applies: FIG. 3A. It counts as biochemical. How it is done: as §1, §2
Data set [7] concerns the target T3, MAP kinase1/Erk1 (Homo sapiens, UniProt P27361).
T3 construct: purchased Upstate USA, Inc
The description is as above. It counts as biochemical. The following applies: FIG. 3B. How it is done:
as §1, §2

T1 sequence (P05771 1-673 isoform P05771-2): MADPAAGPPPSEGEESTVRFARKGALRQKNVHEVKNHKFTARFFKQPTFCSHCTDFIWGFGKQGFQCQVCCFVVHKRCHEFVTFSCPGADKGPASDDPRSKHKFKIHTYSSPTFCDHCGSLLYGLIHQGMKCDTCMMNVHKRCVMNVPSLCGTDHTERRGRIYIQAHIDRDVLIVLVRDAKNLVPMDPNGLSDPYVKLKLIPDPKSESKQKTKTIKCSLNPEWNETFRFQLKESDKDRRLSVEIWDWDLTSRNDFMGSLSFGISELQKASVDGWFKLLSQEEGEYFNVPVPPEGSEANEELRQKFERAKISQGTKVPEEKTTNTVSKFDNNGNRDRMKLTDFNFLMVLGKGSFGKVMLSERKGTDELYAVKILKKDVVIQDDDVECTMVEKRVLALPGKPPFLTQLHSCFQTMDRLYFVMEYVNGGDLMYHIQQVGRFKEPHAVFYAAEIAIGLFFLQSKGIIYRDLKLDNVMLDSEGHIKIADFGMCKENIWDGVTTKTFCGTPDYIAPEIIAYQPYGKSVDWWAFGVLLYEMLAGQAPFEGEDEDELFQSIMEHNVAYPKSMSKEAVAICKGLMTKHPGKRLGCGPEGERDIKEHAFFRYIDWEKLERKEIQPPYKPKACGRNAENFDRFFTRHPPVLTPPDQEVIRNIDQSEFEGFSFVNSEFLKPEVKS
T3 sequence (P27361 whole entry): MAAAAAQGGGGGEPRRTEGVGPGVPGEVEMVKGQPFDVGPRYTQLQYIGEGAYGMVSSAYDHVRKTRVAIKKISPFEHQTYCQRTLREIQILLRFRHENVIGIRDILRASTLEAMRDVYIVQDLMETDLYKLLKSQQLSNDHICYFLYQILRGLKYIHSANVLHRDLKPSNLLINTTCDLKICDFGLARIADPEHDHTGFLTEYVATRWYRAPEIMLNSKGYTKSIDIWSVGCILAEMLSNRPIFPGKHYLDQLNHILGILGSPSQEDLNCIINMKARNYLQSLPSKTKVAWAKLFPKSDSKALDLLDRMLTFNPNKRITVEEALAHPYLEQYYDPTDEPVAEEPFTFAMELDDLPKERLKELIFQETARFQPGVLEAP

For `NC(=O)C[C@H](N)C(=O)O` [Asparagine (N), Asparagine], in data set [1], the “α-COOH pKa” value is 2.0 and the “α-NH3+ pKa” value is given as 8.8. Moreover, in data set [2], the “Monera et al. Hydrophobicity at pH 7” value was −28.

As to `N[C@@H](Cc1ccccc1)C(=O)O` [Phenylalanine (F), Phenylalanine], in data set [2], the “Monera et al. Hydrophobicity at pH 7” value is on record as 100.

Turning to `N[C@@H](Cc1ccc(O)cc1)C(=O)O` [Tyrosine (Y), Tyrosine], in data set [2], the “Monera et al. Hydrophobicity at pH 7” value was 63.

Regarding `O=S(=O)(NCCNC/C=C/c1ccc(Br)cc1)c1cccc2cnccc12` [H98, H89], the “effect of increasing concentrations of enzyme inhibitor on fluorescence” value in data set [3] is “decrease in fluorescence”.

In the case of `CSCC[C@H](N)C(=O)O` [Methionine (M), Methionine], in data set [1], the “α-COOH pKa” value is reported as 2.3 and the “α-NH3+ pKa” value was 9.2. Moreover, the “Monera et al. Hydrophobicity at pH 7” value in data set [2] is 74.

As to `CC(C)[C@H](N)C(=O)O` [Valine (V), Valine], in data set [2], the “Monera et al. Hydrophobicity at pH 7” value is reported as 76.

Consider `C[C@@H](O)[C@H](N)C(=O)O` [Threonine (T), Threonine], for which, in data set [1], the “Side chain pKa” value was roughly 13, the “α-COOH pKa” value was 2.6 and the “α-NH3+ pKa” value was 10.4.

`NCCCC[C@H](N)C(=O)O` [Lysine (K), Lysine]: in data set [1], the “α-NH3+ pKa” value is given as 9.0. Further, the “Monera et al. Hydrophobicity at pH 7” value in data set [2] is reported as −23.

With C17OOOK(tet)RQGS(p)FRA-amide, in data set [4], the “micelle form seen in electron micrograph” value was “only form small spheres and small clusters of spheres”.

Turning to `N[C@@H](Cc1c[nH]c2ccccc12)C(=O)O` [Tryptophan (W), Tryptophan], the “α-COOH pKa” value in data set [1] was 2.4. Moreover, the “Monera et al. Hydrophobicity at pH 7” value in data set [2] is 97.

Turning to `N[C@@H](Cc1c[nH]cn1)C(=O)O` [Histidine (H), Histidine], in data set [2], the “Monera et al. Hydrophobicity at pH 7” value is recorded as 8.

Regarding `O=C(O)[C@@H]1CCCN1` [Proline (P), Proline], the “α-COOH pKa” value in data set [1] is reported as 2.1. Also, the “Monera et al. Hydrophobicity” value in data set [2] (pH 2) was −46 (pH 2).

Turning to `N[C@@H](CO)C(=O)O` [Serine (S), Serine], in data set [1], the “Side chain pKa” value is roughly 13 and the “α-NH3+ pKa” value is listed as 9.2. Moreover, in data set [2], the “Monera et al. Hydrophobicity at pH 7” value is reported as −5.

In the case of `N=C(N)NCCC[C@H](N)C(=O)O` [Arginine (R), Arginine], the “α-COOH pKa” value in data set [1] is given as 2.2.

For “C17OOOK(tet)RQGSFRA-amide ({C17-code O-code O-code O-K(tet)}-RQGSFRA-NH2; reading uncertain; also: printed as C17OOOK(tet)RQGSFRA-amide) [hydrophobic molecule: C17 carbon chain, O-spacers, lysine-linked tet fluorescein dye, peptide RQGSFRA-amide]”, in data set [4], the “micelle form seen in electron micrograph” value is recorded as “cylindrical or tubular micelles”. In addition, in data set [4] (electron micrograph FIG. 1A), the “diameter of cylindrical or tubular micelles” value is given as 20-60 nm and the “length of cylindrical or tubular micelles” value is 200-1000 nm.

As for `N[C@@H](CS)C(=O)O` [Cysteine (C), Cysteine], in data set [1], the “Side chain pKa” value is given as “about 8”. Moreover, in data set [2], the “Monera et al. Hydrophobicity at pH 7” value is 49.

For `CC[C@H](C)[C@H](N)C(=O)O` [Isoleucine (I), Isoleucine], in data set [1], the “α-COOH pKa” value was 2.4 and the “α-NH3+ pKa” value is reported as 9.7. In data set [2], the “Monera et al. Hydrophobicity at pH 7” value is 99.

`C[C@H](N)C(=O)O` [Alanine (A), Alanine]: in data set [1], the “α-COOH pKa” value was 2.4. Moreover, the “Monera et al. Hydrophobicity at pH 7” value in data set [2] was 41.

“C16OOOK(Dye2)EEIYGEF-amide ({C16-code O-code O-code O-K(Dye2)}-EEIYGEF-NH2; reading uncertain; also: printed as C16OOOK(Dye2)EEIYGEF-amide) [C16OOOK(Dye 2)EEIYGEF-amide, hydrophobic molecule: C16 carbon chain, O-spacers, lysine-linked 5-carboxy-2′,7′-dipyridyl-sulfonefluorescein, peptide EEIYGEF-amide]”: the “increase in fluorescence over time on addition of enzyme” value in data set [5], in data set [6] and in data set [7] was “greater than 4 fold” in each case.
